According to ChEMBL document CHEMBL4270599, “Synthesis of a 3'-C-ethynyl-β-d-ribofuranose purine nucleoside library: Discovery of C7-deazapurine analogs as potent antiproliferative nucleosides” (Eur J Med Chem, 2018):

What was measured:
Format in all cases: functional
HL-60(TB) [1] = assay: Growth inhibition of human HL-60(TB) cells assessed as cell growth at 10^-6 M incubated for 48 hrs by sulforhodamine B assay relative to control; conditions: HL-60, 48 h, read-out: Activity
NCI/ADR-RES = assay: Cytotoxicity against human NCI-ADR-RES cells after 48 hrs by SRB assay
U-251 [2] = assay: Growth inhibition of human U251 cells assessed as cell growth at 10^-6 M incubated for 48 hrs by sulforhodamine B assay relative to control; conditions: U-251, 48 h, read-out: Activity
HL-60(TB) [3] = assay: Growth inhibition of human HL-60(TB) cells assessed as cell growth at 10^-7 M incubated for 48 hrs by sulforhodamine B assay relative to control; conditions: HL-60, 48 h, read-out: Activity
NCI-H522 = assay: Cytotoxicity against human NCI-H522 cells after 48 hrs by SRB assay; conditions: NCI-H522, 48 h
SF-539 = assay: Growth inhibition of human SF539 cells assessed as cell growth at 10^-7 M incubated for 48 hrs by sulforhodamine B assay relative to control; conditions: SF-539, 48 h, read-out: Activity
HCT-15 = assay: Growth inhibition of human HCT15 cells assessed as cell growth at 10^-4 M incubated for 48 hrs by sulforhodamine B assay relative to control; conditions: HCT-15, 48 h, read-out: Activity
UACC-62 = assay: Growth inhibition of human UACC62 cells assessed as cell growth at 10^-7 M incubated for 48 hrs by sulforhodamine B assay relative to control; conditions: UACC-62, 48 h, read-out: Activity
UACC-257 = assay: Growth inhibition of human UACC257 cells assessed as cell growth at 10^-7 M incubated for 48 hrs by sulforhodamine B assay relative to control; conditions: UACC-257, 48 h, read-out: Activity
U-251 [4] = assay: Growth inhibition of human U251 cells assessed as cell growth at 10^-8 M incubated for 48 hrs by sulforhodamine B assay relative to control; conditions: U-251, 48 h, read-out: Activity
SF-268 [5] = assay: Growth inhibition of human SF268 cells assessed as cell growth at 10^-7 M incubated for 48 hrs by sulforhodamine B assay relative to control; conditions: SF-268, 48 h, read-out: Activity
MDA-MB-468 = assay: Growth inhibition of human MDA-MB-468 cells assessed as cell growth at 10^-7 M incubated for 48 hrs by sulforhodamine B assay relative to control; conditions: MDA-MB-468, 48 h, read-out: Activity
SF-268 [6] = assay: Growth inhibition of human SF268 cells assessed as cell growth at 10^-6 M incubated for 48 hrs by sulforhodamine B assay relative to control; conditions: SF-268, 48 h, read-out: Activity
OVCAR-5 = assay: Growth inhibition of human OVCAR5 cells assessed as cell growth at 10^-6 M incubated for 48 hrs by sulforhodamine B assay relative to control; conditions: OVCAR-5, 48 h, read-out: Activity
NCI-H226 = assay: Growth inhibition of human NCI-H226 cells assessed as cell growth at 10^-6 M incubated for 48 hrs by sulforhodamine B assay relative to control; conditions: NCI-H226, 48 h, read-out: Activity
U-251 [7] = assay: Cytotoxicity against human U251 cells after 48 hrs by SRB assay; conditions: U-251, 48 h
DU-145 = assay: Growth inhibition of human DU145 cells assessed as cell growth at 10^-4 M incubated for 48 hrs by sulforhodamine B assay relative to control; conditions: DU-145, 48 h, read-out: Activity
K562 = assay: Cytotoxicity against human K562 cells after 48 hrs by SRB assay; conditions: K562, 48 h
786-0 = assay: Cytotoxicity against human 786-0 cells after 48 hrs by SRB assay; conditions: 786-0, 48 h
MCF7 = assay: Growth inhibition of human MCF7 cells assessed as cell growth at 10^-6 M incubated for 48 hrs by sulforhodamine B assay relative to control; conditions: MCF7, 48 h, read-out: Activity
SNB-19 = assay: Growth inhibition of human SNB19 cells assessed as cell growth at 10^-7 M incubated for 48 hrs by sulforhodamine B assay relative to control; conditions: SNB-19, 48 h, read-out: Activity
OVCAR-4 = assay: Cytotoxicity against human OVCAR4 cells after 48 hrs by SRB assay; conditions: OVCAR-4, 48 h
SF-268 [8] = assay: Cytotoxicity against human SF268 cells after 48 hrs by SRB assay; conditions: SF-268, 48 h
OVCAR-3 = assay: Growth inhibition of human OVCAR3 cells assessed as cell growth at 10^-4 M incubated for 48 hrs by sulforhodamine B assay relative to control; conditions: OVCAR-3, 48 h, read-out: Activity
ACHN = assay: Growth inhibition of human ACHN cells assessed as cell growth at 10^-5 M incubated for 48 hrs by sulforhodamine B assay relative to control; conditions: read-out: Activity
SN12C = assay: Growth inhibition of human SN12C cells assessed as cell growth at 10^-4 M incubated for 48 hrs by sulforhodamine B assay relative to control; conditions: read-out: Activity
KM12 = assay: Growth inhibition of human KM12 cells assessed as cell growth at 10^-4 M incubated for 48 hrs by sulforhodamine B assay relative to control; conditions: KM12, 48 h, read-out: Activity
HCC 2998 = assay: Cytotoxicity against human HCC2998 cells after 48 hrs by SRB assay; conditions: HCC 2998, 48 h
IGROV-1 = assay: Growth inhibition of human IGROV1 cells assessed as cell growth at 10^-7 M incubated for 48 hrs by sulforhodamine B assay relative to control; conditions: IGROV-1, 48 h, read-out: Activity
[9] = read-out: pLC50 (the source's name) (converted)
[10] = read-out: LC50 (the source's name)

## C#C[C@@]1(O)[C@@H](CO)O[C@@H](n2cc(I)c3c(N)ncnc32)[C@@H]1O
HL-60(TB) [1]
  growth at 1 µM: -38%
NCI/ADR-RES; read-out: GI50
  GI50: 0.0637 to 0.0839 µM
NCI/ADR-RES; read-out: TGI
  TGI: 4.19 to 14.9 µM
NCI/ADR-RES; [9]
  CC50: > 100 µM
U-251 [2]
  growth at 1 µM: 6 to 9%
HL-60(TB) [3]
  growth at 0.1 µM: 16 to 43%
NCI-H522; read-out: GI50
  GI50: 0.0648 to 0.152 µM
NCI-H522; [10]
  CC50: > 100 µM
NCI-H522; read-out: TGI
  TGI: 0.516 to 0.698 µM
SF-539
  growth at 0.1 µM: 75 to 82%
HCT-15
  growth at 100 µM: 1%
UACC-62
  growth at 0.1 µM: 81 to 84%
UACC-257
  growth at 0.1 µM: 81 to 88%
U-251 [4]
  growth at 0.01 µM: 94 to 99%
SF-268 [5]
  growth at 0.1 µM: 70 to 73%
MDA-MB-468
  growth at 0.1 µM: 65 to 68%
SF-268 [6]
  growth at 1 µM: 49 to 55%
OVCAR-5
  growth at 1 µM: 43 to 64%
NCI-H226
  growth at 1 µM: 57 to 70%
U-251 [7]; read-out: GI50
  GI50: 0.0673 to 0.0802 µM
U-251 [7]; read-out: TGI
  TGI: 10.2 to 100 µM
U-251 [7]; [9]
  CC50: > 100 µM
DU-145
  growth at 100 µM: 7 to 10%
K562; read-out: GI50
  GI50: 0.0595 to 0.069 µM
K562; read-out: TGI
  TGI: > 100 µM
K562; [9]
  CC50: > 100 µM
K562; read-out: pTGI
  TGI: > 100 µM
786-0; read-out: GI50
  GI50: 0.236 to 0.334 µM
786-0; read-out: TGI
  TGI: 3.24 µM
786-0; read-out: pLC50 (converted)
  LC50 (lethal concentration, 50% cell kill): > 100 µM
786-0; read-out: pTGI (converted)
  TGI: 3.24 µM
MCF7
  growth at 1 µM: 1 to 6%
SNB-19
  growth at 0.1 µM: 34 to 59%
OVCAR-4; read-out: GI50
  GI50: 0.563 to 1.16 µM
OVCAR-4; read-out: TGI
  TGI: > 100 µM
OVCAR-4; [9]
  CC50: > 100 µM
OVCAR-4; read-out: pTGI (converted)
  TGI: > 100 µM
SF-268 [8]; read-out: GI50
  GI50: 0.941 to 1.28 µM
SF-268 [8]; [10]
  CC50: > 100 µM
SF-268 [8]; read-out: TGI
  TGI: 32.2 to 77.3 µM
OVCAR-3
  growth at 100 µM: 1 to 2%
ACHN
  growth at 10 µM: 5%
SN12C
  growth at 100 µM: 6%
KM12
  growth at 100 µM: 3 to 9%
HCC 2998; read-out: GI50
  GI50: 0.221 to 0.267 µM
HCC 2998; [10]
  CC50: > 100 µM
HCC 2998; read-out: TGI
  TGI: 2.6 to 3.47 µM
IGROV-1
  growth at 0.1 µM: 5 to 13%
